For experiment [1], the system named is drug-resistant bacteria capable of producing the 3'-phosphotransferase. Particulars: 3'-phosphotransferase producers; cited from earlier work.
In experiment [2] the test system is various kanamycin-resistant bacteria and Pseudomonas aeruginosa (for example, Pseudomonas aeruginosa GN 315) capable of producing the 6'-acetyltransferase. The following applies: 6'-acetyltransferase producers; cited from earlier work.
Experiment [3] has as its system Escherichia coli K-12 JR66/W677. Nature of the experiment: Minimum inhibitory concentration, agar dilution-streak method. Type of experiment: cell-based. The following applies: K12JR66/W677, 18 h, read-out: Minimum Inhibitory Concentration. Here is the method:
(§1) The minimum inhibitory concentrations (mcg/ml) of the new compounds 1-N-((S)-γ-amino-α-hydroxybutyryl)-3'-deoxykanamycin A (abbreviated as S-AHB-DKA); 1-N-((SR)-β-amino-α-hydroxypropionyl)-3'-deoxykanamycin A (abbreviated as SR-AHP-DKA); 1-N-((S)-δ-amino-α-hydroxyvaleryl)-3'-deoxykanamycin A (abbreviated as S-AHV-DKA); and 1-N-((S)-γ-amino-α-hydroxybutyryl)-6'-N-methyl-3'-deoxykanamycin A (abbreviated as S-AHB-MDKA) against various organisms were determined according to agar dilution-streak method (nutrient agar) at 37° C, the estimation being made after 18 hours incubation. For the comparison purpose, the minimum inhibitory concentrations (mcg/ml) of the parent antibiotic 3'-deoxykanamycin A, as well as 1-N-((S)-γ-amino-α-hydroxybutyryl)kanamycin A (abbreviated as AHB-KMA) which is known from U.S. Pat. No. 3,781,268 were also determined in the same manner as stated above.

Experiment [4] has as its system Pseudomonas aeruginosa GN315. Described as above. Format: cell-based. Particulars: P. aeruginosa GN315, nutrient agar, 37° C, 18 hours. Here is the method: as §1
Another experiment relates to Escherichia coli K-12. Described as above. Format: cell-based. Particulars: K12, E. coli K-12, nutrient agar, 37° C, 18 hours. As to the method:
as §1

The test system of experiment [5] is Escherichia coli K-12 LA 290 R55. The description is as above. Format: cell-based. Particulars: K12LA290R55, 18 h, read-out: Minimum Inhibitory Concentration. As to the method: as §1
Experiment [6] deals with Escherichia coli K-12 ML 1410. The experiment is described as above. Format: cell-based. The following applies: K12ML1410, E. coli K-12 ML 1410, nutrient agar, 37° C, 18 hours. As to the method:
as §1

Experiment [7] concerns Staphylococcus aureus FDA 209P. The experiment is described as above. Format: cell-based. The following applies: FDA209P, S. aureus FDA 209P, nutrient agar, 37° C, 18 hours. Here is the method: as §1
For experiment [8], the system named is Escherichia coli K-12 W677. The description is as above. Type of experiment: cell-based. Particulars: K12W677, E. coli K-12 W677, nutrient agar, 37° C, 18 hours. As to the method: as §1
In experiment [9] the test system is Escherichia coli K-12 ML 1629. The description is as above. Format: cell-based. The following applies: K12ML1629, E. coli K-12 ML 1629, nutrient agar, 37° C, 18 hours. Here is the method:
as §1

Experiment [10] deals with Pseudomonas aeruginosa A3. Described as above. Format: cell-based. The following applies: P. aeruginosa A3, nutrient agar, 37° C, 18 hours. As to the method:
as §1

Experiment [11] concerns Escherichia coli K-12 ML 1630. The experiment is described as above. Type of experiment: cell-based. Particulars: K12ML1630, E. coli K-12 ML 1630, nutrient agar, 37° C, 18 hours. Here is the method: as §1
The subject of experiment [12] is Pseudomonas aeruginosa No. 12. The experiment is described as above. Particulars: P. aeruginosa No. 12, nutrient agar, 37° C, 18 hours. Type of experiment: cell-based. As to the method:
as §1

Experiment [13] has as its system kanamycin-resistant bacteria and ribostamycin-resistant bacteria. The following applies: cited from earlier work.

The values below come from patent US4104372A, “1-N-(α-hydroxy-ω-aminoalkanoyl) derivatives of 3'-deoxykanamycin A and the production thereof” (Zaidan Hojin Biseibutsu Kagaku Kenkyu Kai, priority 1975, dated 1978).

≈ marks a conversion by molar mass, not a printed value.

Take `NC[C@@H]1CC[C@@H](N)[C@@H](O[C@H]2[C@H](O)[C@@H](O[C@H]3O[C@H](CO)[C@@H](O)[C@H](N)[C@H]3O)[C@H](N)C[C@@H]2N)O1` [3',4'-dideoxykanamycin B]: in [1], the “effectiveness against drug-resistant bacteria” value (“effectiveness” below) is on record as “practically effective against the drug-resistant bacteria”.

`NC[C@@H]1CC[C@@H](N)[C@@H](O[C@H]2[C@H](O[C@@H]3O[C@H](CO)[C@@H](O)[C@H]3O)[C@@H](O)[C@H](N)C[C@@H]2N)O1` [3',4'-dideoxyribostamycin]: the “effectiveness” value in [1] is on record as “practically effective against the drug-resistant bacteria”.

For `CNC[C@@H]1CC[C@@H](N)[C@@H](O[C@H]2[C@H](O)[C@@H](O[C@H]3O[C@H](CO)[C@@H](O)[C@H](N)[C@H]3O)[C@H](N)C[C@@H]2N)O1` [6'-N-methyl-3',4'-dideoxykanamycin B], the “activity against resistant bacteria” value in [2] was “active against various kanamycin-resistant bacteria and Pseudomonas aeruginosa”.

For the compound `CNC[C@H]1O[C@H](O[C@H]2[C@H](O)[C@@H](O[C@H]3O[C@H](CO)[C@@H](O)[C@H](N)[C@H]3O)[C@H](N)C[C@@H]2N)[C@H](N)C[C@@H]1O` [6'-N-methyl-3'-deoxykanamycin B], the “activity against resistant bacteria” value in experiment [2] is “active against various kanamycin-resistant bacteria and Pseudomonas aeruginosa”.

As to `NCC[C@H](O)C(=O)N[C@@H]1C[C@H](N)[C@@H](O[C@H]2O[C@H](CN)[C@@H](O)[C@H](O)[C@H]2O)[C@H](O)[C@H]1O[C@H]1O[C@H](CO)[C@@H](O)[C@H](N)[C@H]1O` [AHB-KMA, 1-N-((S)-γ-amino-α-hydroxybutyryl)kanamycin A, reference compound], the MIC in [3] turned out to be 3.12 mg/L (≈ 5.33 µM); in [4], 100 mg/L (≈ 171 µM); in the experiment on Escherichia coli K-12, 0.78 mg/L (≈ 1.33 µM); in [5], 0.78 mg/L (≈ 1.33 µM); in [6] it was 0.78 mg/L (≈ 1.33 µM); in experiment [7], 0.78 mg/L (≈ 1.33 µM). Also, the MIC in experiment [8] was 0.78 mg/L (≈ 1.33 µM); in [9], 0.78 mg/L (≈ 1.33 µM); in experiment [10], 3.12 mg/L (≈ 5.33 µM); in experiment [11] it was 1.56 mg/L (≈ 2.66 µM); in experiment [12], 6.25 mg/L (≈ 10.7 µM).

Take `NC[C@H]1O[C@H](O[C@H]2[C@H](O)[C@@H](O[C@H]3O[C@H](CO)[C@@H](O)[C@H](N)[C@H]3O)[C@H](N)C[C@@H]2N)[C@H](O)C[C@@H]1O` [DKA, 3'-deoxykanamycin A]: the MIC in [3] is over 100 mg/L; in experiment [4], over 100 mg/L; against Escherichia coli K-12, 3.12 mg/L (≈ 6.66 µM); in experiment [5], 3.12 mg/L (≈ 6.66 µM); in experiment [6], 3.12 mg/L (≈ 6.66 µM); in experiment [7] it was 1.56 mg/L (≈ 3.33 µM). The MIC came out at 3.12 mg/L (≈ 6.66 µM) in [8]; 3.12 mg/L (≈ 6.66 µM) in experiment [9]; 3.12 mg/L (≈ 6.66 µM) in experiment [10]; 3.12 mg/L (≈ 6.66 µM) in experiment [11]; 12.5 mg/L (≈ 26.7 µM) in experiment [12]. The “effectiveness” value in [1] was “practically effective against the drug-resistant bacteria”.

In the case of `NCC[C@H](O)C(=O)N[C@@H]1C[C@H](N)[C@@H](O[C@H]2O[C@H](CN)[C@@H](O)C[C@H]2O)[C@H](O)[C@H]1O[C@H]1O[C@H](CO)[C@@H](O)[C@H](N)[C@H]1O` [S-AHB-DKA, 1-N-((S)-γ-amino-α-hydroxybutyryl)-3'-deoxykanamycin A], the MIC came out at 0.78 mg/L (≈ 1.37 µM) in experiment [3]; 100 mg/L (≈ 176 µM) in experiment [4]; 0.39 mg/L (≈ 0.685 µM) against Escherichia coli K-12; 0.78 mg/L (≈ 1.37 µM) in [5]; 0.39 mg/L (≈ 0.685 µM) in [6]; 0.39 mg/L (≈ 0.685 µM) in [7]. The MIC is under 0.2 mg/L in experiment [8]; 0.39 mg/L (≈ 0.685 µM) in experiment [9]; 3.12 mg/L (≈ 5.48 µM) in experiment [10]; 0.78 mg/L (≈ 1.37 µM) in [11]; 3.12 mg/L (≈ 5.48 µM) in experiment [12].

As to `CNC[C@H]1O[C@H](O[C@H]2[C@H](O)[C@@H](O[C@H]3O[C@H](CO)[C@@H](O)[C@H](N)[C@H]3O)[C@H](NC(=O)[C@@H](O)CCN)C[C@@H]2N)[C@H](O)C[C@@H]1O` [S-AHB-MDKA, 1-N-((S)-γ-amino-α-hydroxybutyryl)-6'-N-methyl-3'-deoxykanamycin A], the MIC in experiment [3] worked out at 1.56 mg/L (≈ 2.67 µM); in [4] it was 6.25 mg/L (≈ 10.7 µM); against Escherichia coli K-12, 0.39 mg/L (≈ 0.668 µM); in [5], 1.56 mg/L (≈ 2.67 µM); in experiment [6], 0.78 mg/L (≈ 1.34 µM); in [7], 0.78 mg/L (≈ 1.34 µM). In addition, the MIC came to 3.12 mg/L (≈ 5.35 µM) in [8]; 1.56 mg/L (≈ 2.67 µM) in [9]; 3.12 mg/L (≈ 5.35 µM) in experiment [10]; 0.78 mg/L (≈ 1.34 µM) in experiment [11]; 3.12 mg/L (≈ 5.35 µM) in [12].

Consider `NCCC[C@H](O)C(=O)N[C@@H]1C[C@H](N)[C@@H](O[C@H]2O[C@H](CN)[C@@H](O)C[C@H]2O)[C@H](O)[C@H]1O[C@H]1O[C@H](CO)[C@@H](O)[C@H](N)[C@H]1O` [S-AHV-DKA, 1-N-((S)-δ-amino-α-hydroxyvaleryl)-3'-deoxykanamycin A], for which the MIC in [3] is 3.12 mg/L (≈ 5.35 µM); in experiment [4], over 100 mg/L; against Escherichia coli K-12, 0.78 mg/L (≈ 1.34 µM); in experiment [5], 3.12 mg/L (≈ 5.35 µM); in experiment [6], 3.12 mg/L (≈ 5.35 µM); in experiment [7], 0.78 mg/L (≈ 1.34 µM). In addition, the MIC in experiment [8] stood at 3.12 mg/L (≈ 5.35 µM); in experiment [9], 1.56 mg/L (≈ 2.67 µM); in experiment [10], 3.12 mg/L (≈ 5.35 µM); in [11], 1.56 mg/L (≈ 2.67 µM); in experiment [12] it was 6.25 mg/L (≈ 10.7 µM).

For the compound `NCC(O)C(=O)N[C@@H]1C[C@H](N)[C@@H](O[C@H]2O[C@H](CN)[C@@H](O)C[C@H]2O)[C@H](O)[C@H]1O[C@H]1O[C@H](CO)[C@@H](O)[C@H](N)[C@H]1O` (stereo partly drawn) [SR-AHP-DKA, 1-N-((SR)-β-amino-α-hydroxypropionyl)-3'-deoxykanamycin A], the MIC is 1.56 mg/L (≈ 2.81 µM) in experiment [3]; over 100 mg/L in [4]; 0.39 mg/L (≈ 0.702 µM) with Escherichia coli K-12; 1.56 mg/L (≈ 2.81 µM) in experiment [5]; 0.78 mg/L (≈ 1.4 µM) in experiment [6]; 0.78 mg/L (≈ 1.4 µM) in experiment [7]. The MIC was 0.78 mg/L (≈ 1.4 µM) in experiment [8]; 0.78 mg/L (≈ 1.4 µM) in [9]; 3.12 mg/L (≈ 5.62 µM) in [10]; 0.78 mg/L (≈ 1.4 µM) in experiment [11]; 6.25 mg/L (≈ 11.2 µM) in experiment [12].

Take `NCC[C@H](O)C(=O)N[C@@H]1C[C@H](N)[C@@H](O[C@H]2O[C@H](CN)[C@@H](O)[C@H](O)[C@H]2N)[C@H](O[C@@H]2O[C@H](CO)[C@@H](O)[C@H]2O)[C@H]1O` [butirosin B, 1-N-((S)-α-hydroxy-γ-amino-n-butyryl)-5-O-β-D-ribofuranosylneamine]: the “activity against resistant bacteria” value in [13] was “active against some kanamycin-resistant bacteria and some ribostamycin-resistant bacteria”.
